Assay results from patent US7816384B2, “Method for treating a demyelinating condition” (priority 2000, dated 2010).

What was measured:
[1] = tested on: EAE; settings: NBQX treatment in EAE; cited from earlier work
[2] = tested on: adoptive-transfer EAE in female SJL mice; assay: Adoptive-transfer EAE, treatment with amlodipine (Example 1); assay type: in vivo, mouse; settings: two representative animals per group at sampling; clinical index 0-5; control group 2.8
Protocol: FIG. 1 illustrates the clinical course of adoptive-transfer EAE and the effect of treatment with amlodipine. SJL mice were injected with 3×10^7 MBP-activated cells. Starting from Day 5 post-immunization, mice were treated with amlodipine (30 μg as one daily subcutaneous injection) or vehicle (PBS), until Day 13 (Day 9 of treatment). Data represent mean±s.e.m. differences, at respective time-points, between the vehicle-treated group and the amlodipine-treated group. *=p<0.05; **=p<0.01 (students' unpaired, two-tailed t-test); n=8 per group. Induction of Experimental Autoimmune Encephalomyelitis (EAE). Adoptive-transfer EAE was induced in female SJL mice as described ([…] et al., 1998). In brief, lymph node cells were obtained 10 days after myelin basic protein/Complete Freund's Adjuvant immunization. Cells were cultured for 4 days with 50 μg/ml of myelin basic protein, then 3×10^7 cells/mouse were injected into syngeneic mice via tail veins. Onset of disease occurred after 7-9 days. Animals were graded according to a standard clinical index (0-5). Five days after immunization, animals began treatments with one daily injection of 200 μl of vehicle (PBS), or 30 μg of amlodipine in 200 μl of PBS. Neuropathology. At selected time-points, mice from the control and treated groups were perfused with PBS or glutaraldehyde, and the CNS was prepared for frozen or 1-μm epoxy sections, respectively. […]

[3] = tested on: AT-EAE in female SJL/J mice; assay: Adoptive-transfer EAE (AT-EAE), treatment with bepridil or nitrendipine (Example 2); assay type: in vivo, mouse; settings: for difference in average disease scores between vehicle and bepridil groups: bepridil 3 mg/kg from day 3 p.t. (n=14 vs 15); for average difference in disease scores vs vehicle: average over days 13-20 p.t.
[4] = bepridil 3 mg/kg s.c. daily from day 0

NS(=O)(=O)c1cccc2c1c([N+](=O)[O-])cc1[nH]c(=O)c(=O)[nH]c12 [NBQX, 1,2,3,4-tetrahydro-6-nitro-2,3-dioxo-benzoquinoxaline-7-sulfonamide]
course of disease, loss of oligodendrocytes and axonal damage [1]: significantly ameliorated the course of the disease and reduced loss of oligodendrocytes and axonal damage

CCOC(=O)C1=C(COCCN)NC(C)=C(C(=O)OC)C1c1ccccc1Cl (stereo not shown) [amlodipine, 3-ethyl-5-methyl-2-(2-aminoethoxymethyl)-4-(2-chlorophenyl)-1,4-dihydro-6-methyl-3,5-pyridinedicarboxylate]
average clinical score [2]: 1.3

CC(C)COCC(CN(Cc1ccccc1)c1ccccc1)N1CCCC1 (stereo not shown) [bepridil]
difference in average disease scores between vehicle and bepridil groups ([3]; day 13 p.t.): 1.07 points
difference in average disease scores between vehicle and bepridil groups ([3]; day 14 p.t.): 1.20 points
difference in average disease scores between vehicle and bepridil groups ([3]; day 15 p.t.): 0.99 points
difference in average disease scores between vehicle and bepridil groups ([3]; day 16 p.t.): 1.18 points
average difference in disease scores between vehicle and bepridil groups ([3]; bepridil 3 mg/kg from day 3 p.t., average over days 13-16 p.t.): −1.11±0.05 points
delay of overt disease onset compared with vehicle [3, 4]: more than 5 days
average difference in disease scores vs vehicle [3, 4]: 1.66±0.06 points
average difference in disease scores vs vehicle ([3]; bepridil 3 mg/kg s.c. daily from day 0, listed as Bepridil): −1.66±0.06 points
reduction of daily average disease score vs vehicle ([3]; bepridil 3 mg/kg s.c. daily from day 0, day 13 p.t.): 1.8 points
reduction of daily average disease score vs vehicle ([3]; bepridil 3 mg/kg s.c. daily from day 0, day 14 p.t.): 2.0 points
reduction of daily average disease score vs vehicle ([3]; bepridil 3 mg/kg s.c. daily from day 0, day 15 p.t.): 1.45 points
reduction of daily average disease score vs vehicle ([3]; bepridil 3 mg/kg s.c. daily from day 0, day 16 p.t.): 1.65 points
reduction of daily average disease score vs vehicle ([3]; bepridil 3 mg/kg s.c. daily from day 0, day 17 p.t.): 1.60 points
reduction of daily average disease score vs vehicle ([3]; bepridil 3 mg/kg s.c. daily from day 0, day 18 p.t.): 1.60 points
reduction of daily average disease score vs vehicle ([3]; bepridil 3 mg/kg s.c. daily from day 0, day 19 p.t.): 1.70 points
reduction of daily average disease score vs vehicle ([3]; bepridil 3 mg/kg s.c. daily from day 0, day 20 p.t.): 1.5 points

CCOC(=O)C1=C(C)NC(C)=C(C(=O)OC)C1c1cccc([N+](=O)[O-])c1 (stereo not shown) [nitrendipine, ethyl methyl-1,4-dihydro-2,6-dimethyl-4-(m-nitrophenyl)-3,5-pyridinedicarboxylate]
average amelioration of clinical impairment vs vehicle ([3]; nitrendipine 2.5 mg/kg s.c. daily from day 0, average over days 15-20 p.t.): −1.77±0.11 points
amelioration of clinical impairment (disability score) vs vehicle ([3]; nitrendipine 2.5 mg/kg s.c. daily from day 0, day 15 p.t.): 1.5 points
amelioration of clinical impairment (disability score) vs vehicle ([3]; nitrendipine 2.5 mg/kg s.c. daily from day 0, day 16 p.t.): 1.7 points
amelioration of clinical impairment (disability score) vs vehicle ([3]; nitrendipine 2.5 mg/kg s.c. daily from day 0, day 17 p.t.): 1.9 points
amelioration of clinical impairment (disability score) vs vehicle ([3]; nitrendipine 2.5 mg/kg s.c. daily from day 0, day 18 p.t.): 2.25 points
amelioration of clinical impairment (disability score) vs vehicle ([3]; nitrendipine 2.5 mg/kg s.c. daily from day 0, day 19 p.t.): 1.65 points
amelioration of clinical impairment (disability score) vs vehicle ([3]; nitrendipine 2.5 mg/kg s.c. daily from day 0, day 20 p.t.): 1.6 points
